Laboratory results taken from patent US20080119530A1, “Method for treatment and prevention of ultraviolet light induced skin pathologies” (priority 2006, published 2008).
Marks after values point to notes of the source that are not given here.

Key:
skin = test: Affymetrix microarray analysis of gene expression in mouse skin; assay type: in vivo
Source text: Adult female CD-1 mice were maintained in our animal facility and provided with Purina lab chow (Nestlé Purina PetCare, St. Louis, Mo.) and water ad libitum. The dorsal skin was clipped one day before treatment and shaved with a Remington Microscreen shaver (Wahl, Sterling, II) on the day of treatment. […] UVB TL 40W/12 RS bulbs (Philips, Somerset, N.J.) were used that emitted approximately 30% UV-A, 70% UV-B and <1% UV-C, with a total output of 470 μW/cm^2, as measured with radiometric photodetector probes (Newport, Irvine, Calif.). Skin-fold thickness was measured using calipers to lightly pinch the dorsal skin. All animal procedures were approved by our Institutional Animal Care and Use Committee.
Microarray Analysis. Flash frozen skin was ground to a powder using a mortar and pestle and RNA extracted using a PowerGen 700 tissue homogenizer (Fisher, Hampton, N.H.) in TRIzol reagent (Invitrogen, Carlsbad, Calif.) according to the manufacturer's protocol. Total RNA was further purified using RNeasy Midi Columns according to the manufacturer's protocol (Qiagen, Valencia, Calif.). The quality of the RNA was assessed using an RNA 6000 Pico Assay (Aligent, Palo Alto, Calif.) with a Bioanalyzer (Agilent, Palo Alto, Calif.). Mouse MOE430A gene chips were purchased from Affymetrix (Santa Clara, Calif.). Five micrograms of total RNA from each sample was reverse transcribed using Superscript II (Invitrogen, Carlsbad, Calif.). In vitro transcription to generate biotinylated cRNA was performed using the Bioarray High Yield RNA Transcript Labeling kit (Enzo Diagnostics, Farmingdale, N.Y.). Fifteen micrograms of fragmented cRNA was hybridized for 16 h to mouse MOE430A chips at 45° C. using the Affymetrix 640 hybridization oven, stained, and scanned using the Agilent scanner according to standard Affymetrix protocols. Signal intensities from the Affymetrix “.CEL” files were derived using GeneChip Operating Software v1.2 (Affymetrix, Santa Clara, Calif.), multiplicative model-based expression index (dChip software)^19 and robust multi-array average^20. The data discussed in this publication have been deposited in NCBIs Gene Expression Omnibus (GEO) and are accessible through GEO Series accession number GSE4066. Methods employed to determine significant changes in gene expression from the derived signal intensities were Rank Products (RP)21, Significance Analysis of Microarrays (SAM)^22, Analysis of Variance (ANOVA), Student's t-test, and fold-change. […] Hierarchical clustering of gene expression was performed with dChip software. […] Significant clustering was also found among samples 6 h after UV and among samples 24 h after UV. Furthermore, significant clustering was found among samples treated with DMSO and among those treated with AG825. Scatter plots were generated using GeneChip Operating Software. Self-Organizing Maps were generated using GeneCluster 2.0 software^23. Grouping of genes into biological processes was performed using NetAffx Analysis Center and literature searches. Genes were mapped into biological networks with Pathways Analysis software (Ingenuity Systems, Mountain View, Calif.). Promoter Analysis and Interaction Network Toolset v3.3 (PAINT) was used to scan sequences up to 2000 base pair upstream of genes with altered expression to search for transcription factor binding sequences or transcriptional response elements (TRE) using a 0.95 core similarity threshold^24.
The influence of Erbb2 on gene expression following UV exposure was assessed using microarray analysis. […] Mice were exposed to UV twice because previous results indicated the influence of Erbb receptors on the response of the skin to UV increases with multiple exposures (22). […] In two randomly selected vehicle-treated and sham-irradiated mice, 8 genes out of approximately 13,000 detected (<0.1%) were expressed with more than a 5-fold difference between them. […]

Abl = Abl (Homo sapiens, UniProt P00519)
[1] = Adhesion and Migration, 6 h post-UV
[2] = Adhesion and Migration, 24 h post-UV
[3] = Cell Communication, 6 h post-UV
[4] = Cell Communication, 24 h post-UV
[5] = Pigment Biosynthesis, 6 h post-UV
[6] = Pigment Biosynthesis, 24 h post-UV

Abl, sequence (P00519 whole entry, species assumed): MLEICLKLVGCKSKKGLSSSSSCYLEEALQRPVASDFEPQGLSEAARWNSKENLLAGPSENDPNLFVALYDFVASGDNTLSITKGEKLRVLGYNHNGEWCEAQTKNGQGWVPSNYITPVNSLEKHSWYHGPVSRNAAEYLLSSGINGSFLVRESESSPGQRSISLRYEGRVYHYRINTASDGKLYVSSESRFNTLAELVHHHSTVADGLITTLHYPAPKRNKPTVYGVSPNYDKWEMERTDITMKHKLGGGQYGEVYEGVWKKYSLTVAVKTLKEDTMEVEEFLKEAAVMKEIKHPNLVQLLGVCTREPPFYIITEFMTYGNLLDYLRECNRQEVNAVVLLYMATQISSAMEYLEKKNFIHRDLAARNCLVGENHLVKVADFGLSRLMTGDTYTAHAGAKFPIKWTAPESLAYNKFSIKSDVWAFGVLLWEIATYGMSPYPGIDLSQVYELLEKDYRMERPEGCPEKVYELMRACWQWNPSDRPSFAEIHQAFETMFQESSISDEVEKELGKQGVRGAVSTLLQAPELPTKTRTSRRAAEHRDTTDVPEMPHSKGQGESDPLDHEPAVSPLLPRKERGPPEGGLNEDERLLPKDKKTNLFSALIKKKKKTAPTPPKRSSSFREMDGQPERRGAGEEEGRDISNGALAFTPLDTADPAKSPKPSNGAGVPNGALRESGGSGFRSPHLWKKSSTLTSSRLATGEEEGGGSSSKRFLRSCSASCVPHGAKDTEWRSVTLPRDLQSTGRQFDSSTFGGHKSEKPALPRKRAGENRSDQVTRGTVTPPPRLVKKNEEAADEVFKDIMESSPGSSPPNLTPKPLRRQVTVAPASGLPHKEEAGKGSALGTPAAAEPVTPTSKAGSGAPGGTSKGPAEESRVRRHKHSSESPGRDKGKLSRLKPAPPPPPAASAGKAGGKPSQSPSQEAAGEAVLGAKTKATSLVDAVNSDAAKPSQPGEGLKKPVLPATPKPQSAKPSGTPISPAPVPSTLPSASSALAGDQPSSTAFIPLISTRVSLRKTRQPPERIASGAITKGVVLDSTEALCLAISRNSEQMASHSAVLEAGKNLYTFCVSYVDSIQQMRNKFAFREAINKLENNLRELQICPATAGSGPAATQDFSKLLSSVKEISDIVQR

SMILES: COc1cc(/C=C(\C#N)C(N)=O)cc(CSc2nc3ccccc3s2)c1O [AG825]
- number of genes with altered expression (skin; 6 h after UV): 218
- share of the altered genes with increased expression (skin; 6 h after UV): 61%
- number of genes with altered expression (skin; 24 h after UV): 127
- share of the altered genes with increased expression (skin; 24 h after UV): 54%
- fold increase in Mmp9 expression (skin; 24 h after UV exposure, Affymetrix data): 2 fold
- Thbs1 expression vs vehicle-treated mice (skin; 24 h post-UV, Affymetrix probe): similar
- Total number of genes changed in AG825-treated samples (skin; Adhesion and Migration): 47
- percentage of the total number of genes altered by Erbb2 (skin; Adhesion and Migration): (13%)
- Number of genes decreased (↓) in AG825-treated samples when compared to the vehicle alone (skin; [1]): 13
- Number of genes increased (↑) in AG825-treated samples when compared to the vehicle alone (skin; [1]): 14
- Number of genes decreased (↓) in AG825-treated samples when compared to the vehicle alone (skin; [2]): 14
- Number of genes increased (↑) in AG825-treated samples when compared to the vehicle alone (skin; [2]): 4
- Number of genes decreased (↓) in AG825-treated samples when compared to the vehicle alone (skin; Adhesion and Migration, Sham): 0
- Number of genes increased (↑) in AG825-treated samples when compared to the vehicle alone (skin; Adhesion and Migration, Sham): 7
- Total number of genes changed in AG825-treated samples (skin; Apoptosis): 25
- percentage of the total number of genes altered by Erbb2 (skin; Apoptosis): (7%)
- Number of genes decreased (↓) in AG825-treated samples when compared to the vehicle alone (skin; Apoptosis, 6 h post-UV): 6
- Number of genes increased (↑) in AG825-treated samples when compared to the vehicle alone (skin; Apoptosis, 6 h post-UV): 5
- Number of genes decreased (↓) in AG825-treated samples when compared to the vehicle alone (skin; Apoptosis, 24 h post-UV): 4
- Number of genes increased (↑) in AG825-treated samples when compared to the vehicle alone (skin; Apoptosis, 24 h post-UV): 6
- Number of genes decreased (↓) in AG825-treated samples when compared to the vehicle alone (skin; Apoptosis, Sham): 2
- Number of genes increased (↑) in AG825-treated samples when compared to the vehicle alone (skin; Apoptosis, Sham): 2
- Total number of genes changed in AG825-treated samples (skin; Cancer): 55
- percentage of the total number of genes altered by Erbb2 (skin; Cancer): (15%)
- Number of genes decreased (↓) in AG825-treated samples when compared to the vehicle alone (skin; Cancer, 6 h post-UV): 12
- Number of genes increased (↑) in AG825-treated samples when compared to the vehicle alone (skin; Cancer, 6 h post-UV): 25
- Number of genes decreased (↓) in AG825-treated samples when compared to the vehicle alone (skin; Cancer, 24 h post-UV): 7
- Number of genes increased (↑) in AG825-treated samples when compared to the vehicle alone (skin; Cancer, 24 h post-UV): 8
- Number of genes decreased (↓) in AG825-treated samples when compared to the vehicle alone (skin; Cancer, Sham): 3
- Number of genes increased (↑) in AG825-treated samples when compared to the vehicle alone (skin; Cancer, Sham): 5
- Total number of genes changed in AG825-treated samples (skin; Cell Communication): 65
- percentage of the total number of genes altered by Erbb2 (skin; Cell Communication): (18%)
- Number of genes decreased (↓) in AG825-treated samples when compared to the vehicle alone (skin; [3]): 18
- Number of genes increased (↑) in AG825-treated samples when compared to the vehicle alone (skin; [3]): 18
- Number of genes decreased (↓) in AG825-treated samples when compared to the vehicle alone (skin; [4]): 20
- Number of genes increased (↑) in AG825-treated samples when compared to the vehicle alone (skin; [4]): 5
- Number of genes decreased (↓) in AG825-treated samples when compared to the vehicle alone (skin; Cell Communication, Sham): 1
- Number of genes increased (↑) in AG825-treated samples when compared to the vehicle alone (skin; Cell Communication, Sham): 6
- Total number of genes changed in AG825-treated samples (skin; Development): 55
- percentage of the total number of genes altered by Erbb2 (skin; Development): (15%)
- Number of genes decreased (↓) in AG825-treated samples when compared to the vehicle alone (skin; Development, 6 h post-UV): 8
- Number of genes increased (↑) in AG825-treated samples when compared to the vehicle alone (skin; Development, 6 h post-UV): 26
- Number of genes decreased (↓) in AG825-treated samples when compared to the vehicle alone (skin; Development, 24 h post-UV): 12
- Number of genes increased (↑) in AG825-treated samples when compared to the vehicle alone (skin; Development, 24 h post-UV): 4
- Number of genes decreased (↓) in AG825-treated samples when compared to the vehicle alone (skin; Development, Sham): 2
- Number of genes increased (↑) in AG825-treated samples when compared to the vehicle alone (skin; Development, Sham): 6
- Total number of genes changed in AG825-treated samples (skin; Immune Response): 65
- percentage of the total number of genes altered by Erbb2 (skin; Immune Response): (18%)
- Number of genes decreased (↓) in AG825-treated samples when compared to the vehicle alone (skin; Immune Response, 6 h post-UV): 42
- Number of genes increased (↑) in AG825-treated samples when compared to the vehicle alone (skin; Immune Response, 6 h post-UV): 3
- Number of genes decreased (↓) in AG825-treated samples when compared to the vehicle alone (skin; Immune Response, 24 h post-UV): 14
- Number of genes increased (↑) in AG825-treated samples when compared to the vehicle alone (skin; Immune Response, 24 h post-UV): 4
- Number of genes decreased (↓) in AG825-treated samples when compared to the vehicle alone (skin; Immune Response, Sham): 0
- Number of genes increased (↑) in AG825-treated samples when compared to the vehicle alone (skin; Immune Response, Sham): 8
- Total number of genes changed in AG825-treated samples (skin; Metabolism): 158
- Number of genes decreased (↓) in AG825-treated samples when compared to the vehicle alone (skin; Metabolism, 6 h post-UV): 23
- Number of genes increased (↑) in AG825-treated samples when compared to the vehicle alone (skin; Metabolism, 6 h post-UV): 63
- Number of genes decreased (↓) in AG825-treated samples when compared to the vehicle alone (skin; Metabolism, 24 h post-UV): 24
- Number of genes increased (↑) in AG825-treated samples when compared to the vehicle alone (skin; Metabolism, 24 h post-UV): 43
- Number of genes decreased (↓) in AG825-treated samples when compared to the vehicle alone (skin; Metabolism, Sham): 10
- Number of genes increased (↑) in AG825-treated samples when compared to the vehicle alone (skin; Metabolism, Sham): 9
- Total number of genes changed in AG825-treated samples (skin; Pigment Biosynthesis): 6
- percentage of the total number of genes altered by Erbb2 (skin; Pigment Biosynthesis): (2%)
- Number of genes decreased (↓) in AG825-treated samples when compared to the vehicle alone (skin; [5]): 0
- Number of genes increased (↑) in AG825-treated samples when compared to the vehicle alone (skin; [5]): 5
- Number of genes decreased (↓) in AG825-treated samples when compared to the vehicle alone (skin; [6]): 0
- Number of genes increased (↑) in AG825-treated samples when compared to the vehicle alone (skin; [6]): 1
- Number of genes decreased (↓) in AG825-treated samples when compared to the vehicle alone (skin; Pigment Biosynthesis, Sham): 3
- Number of genes increased (↑) in AG825-treated samples when compared to the vehicle alone (skin; Pigment Biosynthesis, Sham): 0
- Total number of genes changed in AG825-treated samples (skin; Proliferation): 36
- percentage of the total number of genes altered by Erbb2 (skin; Proliferation): (10%)^c
- Number of genes decreased (↓) in AG825-treated samples when compared to the vehicle alone (skin; Proliferation, 6 h post-UV): 6
- Number of genes increased (↑) in AG825-treated samples when compared to the vehicle alone (skin; Proliferation, 6 h post-UV): 21
- Number of genes decreased (↓) in AG825-treated samples when compared to the vehicle alone (skin; Proliferation, 24 h post-UV): 3
- Number of genes increased (↑) in AG825-treated samples when compared to the vehicle alone (skin; Proliferation, 24 h post-UV): 6
- Number of genes decreased (↓) in AG825-treated samples when compared to the vehicle alone (skin; Proliferation, Sham): 3^b
- Number of genes increased (↑) in AG825-treated samples when compared to the vehicle alone (skin; Proliferation, Sham): 2
- Total number of genes changed in AG825-treated samples (skin; Total Genes): 361
- Number of genes decreased (↓) in AG825-treated samples when compared to the vehicle alone (skin; Total Genes, 6 h post-UV): 85
- Number of genes increased (↑) in AG825-treated samples when compared to the vehicle alone (skin; Total Genes, 6 h post-UV): 133
- Number of genes decreased (↓) in AG825-treated samples when compared to the vehicle alone (skin; Total Genes, 24 h post-UV): 59
- Number of genes increased (↑) in AG825-treated samples when compared to the vehicle alone (skin; Total Genes, 24 h post-UV): 68
- Number of genes decreased (↓) in AG825-treated samples when compared to the vehicle alone (skin; Total Genes, Sham): 14
- Number of genes increased (↑) in AG825-treated samples when compared to the vehicle alone (skin; Total Genes, Sham): 25
- expression of cell cycle regulatory genes such as Ccna2, Ccnb1 and Ccnb2 (skin; after UV): lesser responsiveness to UV
- share of the altered genes with increased expression (skin; all 361 genes): 61%
- expression of proinflammatory chemokines such as Cxcl2 and Cd44 compared to vehicle-treated skin (skin; by 24 h after UV exposure): lower
- Il1 b expression: fold greater increase after UV in vehicle-treated compared to AG825-treated samples (skin; microarray): 16 fold
- expression of the anti-apoptotic genes Ghr and Ptgs2 (skin; mouse, in vivo): suppressed
- fold higher Thbs1 expression compared to corresponding control (skin; sham-irradiated skin, Affymetrix probe): 2 fold
- number of genes with altered expression (skin; without UV irradiation): 39
- share of the altered genes with increased expression (skin; without UV irradiation): 64%
- fold higher IC50 for Abl than for Erbb2 (Abl): more than 100 fold
